What all share (assay): relative viability (nuclei count vs DMSO), 5 days (fraction); higher = more cells survive
Compound in assay [1]: N=C1NC(=O)/C(=C/c2ccc(O)cc2)S1 [Mirin] + O=C(c1cc(Cc2n[nH]c(=O)c3ccccc23)ccc1F)N1CCN(C(=O)C2CC2)CC1 [Olaparib] (partner 8 µM)
Put shortly:
(§1)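 Lung cancer cell lines in 1536-well plates got either a single drug or a fixed anchor-drug dose together with five library-drug doses (not always all listed) in √10 steps, by pin tool, on the day after seeding. Nuclei were counted after 5 days, and relative viability is the treated-to-vehicle ratio of nuclei counts. Values are medians of duplicate plates.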

Compound in assay [2]: N=C1NC(=O)/C(=C/c2ccc(O)cc2)S1 [Mirin] + CC(=O)Nc1cccc(-n2c(=O)n(C3CC3)c(=O)c3c(Nc4ccc(I)cc4F)n(C)c(=O)c(C)c32)c1 [Trametinib] (partner 0.02 µM)
Put shortly: as §1

Compound in assay [3]: CCC1=CN=CN=C1N2CCN(CC2)CC3=NC4=C(N3)C=C(C=C4)C(F)(F)F + NC(=O)Nc1cc(-c2cccc(F)c2)sc1C(=O)N[C@H]1CCCNC1 [AZD7762] (partner 0.2 µM)
Put shortly: as §1

Compound in assay [4]: CCC1=CN=CN=C1N2CCN(CC2)CC3=NC4=C(N3)C=C(C=C4)C(F)(F)F + CS(=O)(=O)CCNCc1ccc(-c2ccc3ncnc(Nc4ccc(OCc5cccc(F)c5)c(Cl)c4)c3c2)o1 [Lapatinib] (partner 2 µM)
Put shortly:
as §1

In the case of 201T, the relative viability was determined as 0.877 in assay [1] (first compound 0.25 µM); 0.888 in assay [1] (first compound 0.7906 µM); 0.886 in assay [1] (first compound 2.5 µM); 0.902 in assay [1] (first compound 7.906 µM); 1.03 in assay [1] (first compound 25 µM); 0.739 in assay [2] (first compound 0.25 µM). Further, the relative viability came to 0.74 in assay [2] (first compound 0.7906 µM); 0.77 in assay [2] (first compound 2.5 µM); 0.796 in assay [2] (first compound 7.906 µM); 0.857 in assay [2] (first compound 25 µM); 0.64 in assay [3] (first compound 0.04 µM); 0.581 in assay [3] (first compound 0.1265 µM). The relative viability in assay [3] (first compound 0.4 µM) was 0.511; in assay [3] (first compound 1.265 µM) it was 0.585; in assay [3] (first compound 4 µM), 0.681; in assay [4] (first compound 0.04 µM), 1.01; in assay [4] (first compound 0.1265 µM), 0.992; in assay [4] (first compound 0.4 µM), 1.03. The relative viability in assay [4] (first compound 1.265 µM) amounted to 0.947; in assay [4] (first compound 4 µM), 1.09.

Turning to A549, the relative viability in assay [1] (first compound 0.25 µM) was 0.342; in assay [1] (first compound 0.7906 µM), 0.229; in assay [1] (first compound 2.5 µM), 0.333; in assay [1] (first compound 7.906 µM) it was 0.243; in assay [1] (first compound 25 µM), 0.367; in assay [4] (first compound 0.04 µM), 0.885. Also, the relative viability was found to be 0.948 in assay [4] (first compound 0.1265 µM), 0.823 in assay [4] (first compound 0.4 µM), 0.945 in assay [4] (first compound 1.265 µM) and 0.808 in assay [4] (first compound 4 µM).

As to A-427, the relative viability in assay [1] (first compound 0.25 µM) came out at 0.769; in assay [1] (first compound 0.7906 µM) it was 0.682; in assay [1] (first compound 2.5 µM), 0.631; in assay [1] (first compound 7.906 µM) it was 0.766; in assay [1] (first compound 25 µM), 0.766; in assay [2] (first compound 0.25 µM) it was 0.734. The relative viability in assay [2] (first compound 0.7906 µM) worked out at 0.647; in assay [2] (first compound 2.5 µM), 0.718; in assay [2] (first compound 7.906 µM) it was 0.677; in assay [2] (first compound 25 µM) it was 0.706; in assay [3] (first compound 0.04 µM), 0.735; in assay [3] (first compound 0.1265 µM), 0.788. The relative viability came out at 0.631 in assay [3] (first compound 0.4 µM); 0.641 in assay [3] (first compound 1.265 µM); 0.785 in assay [3] (first compound 4 µM); 0.795 in assay [4] (first compound 0.04 µM); 0.991 in assay [4] (first compound 0.1265 µM); 1.01 in assay [4] (first compound 0.4 µM). Also, the results for the relative viability in assay [4] (first compound 1.265 µM) and in assay [4] (first compound 4 µM) were 0.911 and 1.05, respectively.

As for ABC-1, the relative viability came to 0.887 in assay [1] (first compound 0.25 µM); 0.618 in assay [1] (first compound 0.7906 µM); 0.78 in assay [1] (first compound 2.5 µM); 0.593 in assay [1] (first compound 7.906 µM); 0.41 in assay [1] (first compound 25 µM); 0.766 in assay [3] (first compound 0.04 µM). For the same cell line, the relative viability is 0.906 in assay [3] (first compound 0.1265 µM); 0.702 in assay [3] (first compound 0.4 µM); 0.956 in assay [3] (first compound 1.265 µM); 0.869 in assay [3] (first compound 4 µM); 1.23 in assay [4] (first compound 0.04 µM); 1.24 in assay [4] (first compound 0.1265 µM). Besides, the relative viability came out at 1.25 in assay [4] (first compound 0.4 µM), 1.01 in assay [4] (first compound 1.265 µM) and 0.98 in assay [4] (first compound 4 µM).

Regarding BEN, the relative viability in assay [1] (first compound 0.25 µM) came out at 0.958; in assay [1] (first compound 0.7906 µM), 0.987; in assay [1] (first compound 2.5 µM) it was 1.21; in assay [1] (first compound 7.906 µM), 0.962; in assay [1] (first compound 25 µM), 0.638; in assay [2] (first compound 0.25 µM), 0.942. Also, the relative viability in assay [2] (first compound 0.7906 µM) stood at 1.01; in assay [2] (first compound 2.5 µM) it was 1.16; in assay [2] (first compound 7.906 µM), 0.825; in assay [2] (first compound 25 µM) it was 0.591; in assay [3] (first compound 0.04 µM), 0.573; in assay [3] (first compound 0.1265 µM), 0.57. For the same cell line, the relative viability in assay [3] (first compound 0.4 µM) was 0.614; in assay [3] (first compound 1.265 µM) it was 0.611; in assay [3] (first compound 4 µM), 0.578; in assay [4] (first compound 0.04 µM), 0.535; in assay [4] (first compound 0.1265 µM) it was 0.731; in assay [4] (first compound 0.4 µM), 0.597. In addition, the figures for the relative viability in assay [4] (first compound 1.265 µM) and in assay [4] (first compound 4 µM) were 0.492 and 0.437, respectively.

With CAL-12T, the relative viability in assay [1] (first compound 0.25 µM) turned out to be 0.733; in assay [1] (first compound 0.7906 µM), 0.821; in assay [1] (first compound 2.5 µM), 0.668; in assay [1] (first compound 7.906 µM), 0.658; in assay [1] (first compound 25 µM), 0.531; in assay [2] (first compound 0.25 µM), 0.336. In addition, the relative viability in assay [2] (first compound 0.7906 µM) was determined as 0.373; in assay [2] (first compound 2.5 µM), 0.405; in assay [2] (first compound 7.906 µM) it was 0.357; in assay [2] (first compound 25 µM), 0.32; in assay [3] (first compound 0.04 µM) it was 0.501; in assay [3] (first compound 0.1265 µM), 0.6. The relative viability in assay [3] (first compound 0.4 µM) is 0.609; in assay [3] (first compound 1.265 µM), 0.679; in assay [3] (first compound 4 µM), 0.604; in assay [4] (first compound 0.1265 µM), 0.667; in assay [4] (first compound 0.4 µM), 0.677; in assay [4] (first compound 1.265 µM), 0.707. In assay [4] (first compound 4 µM), the relative viability worked out at 0.574.

Regarding COR-L23, the relative viability was 0.395 in assay [1] (first compound 0.25 µM); 0.319 in assay [1] (first compound 0.7906 µM); 0.313 in assay [1] (first compound 2.5 µM); 0.365 in assay [1] (first compound 7.906 µM); 0.319 in assay [1] (first compound 25 µM); 0.559 in assay [2] (first compound 0.25 µM). Also, the relative viability worked out at 0.522 in assay [2] (first compound 0.7906 µM); 0.56 in assay [2] (first compound 2.5 µM); 0.345 in assay [2] (first compound 7.906 µM); 0.652 in assay [2] (first compound 25 µM); 0.979 in assay [4] (first compound 0.04 µM); 0.914 in assay [4] (first compound 0.1265 µM). The values for the relative viability in assay [4] (first compound 0.4 µM), in assay [4] (first compound 1.265 µM) and in assay [4] (first compound 4 µM) were 0.74, 0.781 and 0.92, respectively.

Turning to COR-L 105, the relative viability in assay [1] (first compound 0.25 µM) is 0.738; in assay [1] (first compound 0.7906 µM), 0.843; in assay [1] (first compound 2.5 µM), 0.696; in assay [1] (first compound 7.906 µM), 0.683; in assay [1] (first compound 25 µM), 0.683; in assay [2] (first compound 0.25 µM) it was 0.428. The relative viability in assay [2] (first compound 0.7906 µM) worked out at 0.482; in assay [2] (first compound 2.5 µM), 0.431; in assay [2] (first compound 7.906 µM), 0.449; in assay [2] (first compound 25 µM) it was 0.451; in assay [4] (first compound 0.04 µM), 0.35; in assay [4] (first compound 0.1265 µM), 0.331. Moreover, the relative viability in assay [4] (first compound 0.4 µM) is 0.395; in assay [4] (first compound 1.265 µM), 0.275; in assay [4] (first compound 4 µM) it was 0.426.

The values above are taken from the supplement of paper PMC10307832.
